Measured values: patent publication US9833497B2, “Human originated EGF domain proteins and use of the same” (CHENGDU SOURCEBIO LIMITED-LIABILITY COMPANY, priority 2013, dated 2017)

Experiments:
Type in all cases: cell-based
E. coli DH5α = assay: Antibacterial activity: MIC and growth curve against E. coli DH5α in 96-well plate; settings: minimal inhibitory concentration against E. coli DH5α; 96-well plate, 5×10^5 CFU/mL, 37° C., judged after 8 h
Procedure, shortened: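 Log-phase bacteria (OD600 ~0.5) resuspended in LB at 5×10^5 CFU/mL, exposed to recombinant protein at 50, 25, 12.5 μg/mL final in triplicate, 37 °C shaking at 175 rpm. OD600 read every 30 min; MIC is lowest concentration showing no growth.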

E. coli BL21 = assay: MIC against Gram-negative bacteria: E. coli BL21; settings: 5×10^5 CFU/mL; for MIC (μg/mL) E. coli BL21: 10 h cultivation at 37° C.; for MIC E. coli BL21 / MIC against E. coli BL21: 96-well plate, 37° C., 10 h
Procedure, shortened: (§1)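 Bacteria grown in LB at 37° C with shaking to McFarland 0.5, pelleted and resuspended in fresh LB, then seeded at 5×10^5 CFU/mL per well. Purified recombinant human EGF domain proteins were two-fold serially diluted in triplicate and plates shaken at 37° C, 175 rpm. MIC is the lowest protein concentration with no bacterial growth.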

Pseudomonas aeruginosa = assay: MIC against Gram-negative bacteria: Pseudomonas aeruginosa; settings: 5×10^5 CFU/mL; for MIC (μg/mL) P. aeruginosa: 10 h cultivation at 37° C.; for MIC P. aeruginosa / MIC against P. aeruginosa: 96-well plate, 37° C., 10 h
Procedure, shortened: as §1

Klebsiella pneumonia = assay: MIC against Gram-negative bacteria: Klebsiella pneumonia; settings: 5×10^5 CFU/mL; for MIC (μg/mL) K. pneumonia: 10 h cultivation at 37° C.; for MIC K. pneumonia / MIC against K. pneumonia: 96-well plate, 37° C., 10 h
Procedure, shortened: as §1

Enterobacter cloacae = assay: MIC against Gram-negative bacteria: Enterobacter cloacae; settings: 5×10^5 CFU/mL; for MIC (μg/mL) E. cloacae: 10 h cultivation at 37° C.; for MIC E. cloacae / MIC against E. cloacae: 96-well plate, 37° C., 10 h
Procedure, shortened: as §1

Aeromonas hydrophila = assay: MIC against Gram-negative bacteria: Aeromonas hydrophila; settings: 5×10^5 CFU/mL; for MIC (μg/mL) A. hydrophila: 10 h cultivation at 37° C.; for MIC A. hydrophila / MIC against A. hydrophila: 96-well plate, 37° C., 10 h
Procedure, shortened: as §1

Citrobacter diversus = assay: MIC against Gram-negative bacteria: Citrobacter diversus; settings: 5×10^5 CFU/mL; for MIC (μg/mL) C. diversus: 10 h cultivation at 37° C.; for MIC C. diversus / MIC against C. diversus: 96-well plate, 37° C., 10 h
Procedure, shortened: as §1

Moraxella catarrhalis = assay: MIC against Gram-negative bacteria: Moraxella catarrhalis; settings: 5×10^5 CFU/mL; for MIC (μg/mL) M. catarrhalis: 10 h cultivation at 37° C.; for MIC M. catarrhalis / MIC against M. catarrhalis: 96-well plate, 37° C., 10 h
Procedure, shortened: as §1

Proteus mirabilis = assay: MIC against Gram-negative bacteria: Proteus mirabilis; settings: 5×10^5 CFU/mL; for MIC (μg/mL) P. mirabilis: 10 h cultivation at 37° C.; for MIC P. mirabilis / MIC against P. mirabilis: 96-well plate, 37° C., 10 h
Procedure, shortened: as §1

Proteus vulgaris = assay: MIC against Gram-negative bacteria: Proteus vulgaris; settings: 5×10^5 CFU/mL; for MIC (μg/mL) P. vulgaris: 10 h cultivation at 37° C.; for MIC P. vulgaris / MIC against P. vulgaris: 96-well plate, 37° C., 10 h
Procedure, shortened: as §1

Serratia marcescens = assay: MIC against Gram-negative bacteria: Serratia marcescens; settings: 5×10^5 CFU/mL; for MIC (μg/mL) S. marcescens: 10 h cultivation at 37° C.; for MIC S. marcescens / MIC against S. marcescens: 96-well plate, 37° C., 10 h
Procedure, shortened: as §1

PRT813 (FGVNCSSSCSCGGAPCHGVTGQCRCPPGRTGEDCE; listed as Homo sapiens)
MIC (E. coli DH5α): 50 µg/mL
MIC (μg/mL) E. coli BL21 (E. coli BL21; E. coli BL21): 50 µg/mL
MIC (μg/mL) P. aeruginosa (Pseudomonas aeruginosa): 50 µg/mL
MIC (μg/mL) K. pneumonia (Klebsiella pneumonia): 50 µg/mL
MIC (μg/mL) E. cloacae (Enterobacter cloacae): 25 µg/mL
MIC (μg/mL) A. hydrophila (Aeromonas hydrophila): 50 µg/mL
MIC (μg/mL) C. diversus (Citrobacter diversus): 25 µg/mL
MIC (μg/mL) M. catarrhalis (Moraxella catarrhalis): 25 µg/mL
MIC (μg/mL) P. mirabilis (Proteus mirabilis): 25 µg/mL
MIC (μg/mL) P. vulgaris (Proteus vulgaris): 50 µg/mL
MIC (μg/mL) S. marcescens (Serratia marcescens): 12.5 µg/mL

PRT625 (CNCSGRSEECTFDRELFRSTGHGGRCHHCRDHTAGPHCERCQENFYHWDPRMPCQP; listed as Homo sapiens)
MIC (E. coli DH5α): 12.5 µg/mL
MIC E. coli BL21 (E. coli BL21): 25 µg/mL
MIC P. aeruginosa (Pseudomonas aeruginosa): 12.5 µg/mL
MIC K. pneumonia (Klebsiella pneumonia): 25 µg/mL
MIC E. cloacae (Enterobacter cloacae): 50 µg/mL
MIC A. hydrophila (Aeromonas hydrophila): 25 µg/mL
MIC C. diversus (Citrobacter diversus): 12.5 µg/mL
MIC M. catarrhalis (Moraxella catarrhalis): 25 µg/mL
MIC P. mirabilis (Proteus mirabilis): 50 µg/mL
MIC P. vulgaris (Proteus vulgaris): 25 µg/mL
MIC S. marcescens (Serratia marcescens): 12.5 µg/mL

PRT1240 (WGPDCRESCPCHPHGQCEPATGACQCQADRWGARCE; listed as Homo sapiens)
MIC (E. coli DH5α): 12.5 µg/mL
MIC against E. coli BL21 (E. coli BL21; E. coli BL21): 50 µg/mL
MIC against P. aeruginosa (Pseudomonas aeruginosa; Pseudomonas aeruginosa): 12.5 µg/mL
MIC against K. pneumonia (Klebsiella pneumonia; Klebsiella pneumonia): 12.5 µg/mL
MIC against E. cloacae (Enterobacter cloacae; Enterobacter cloacae): 25 µg/mL
MIC against A. hydrophila (Aeromonas hydrophila; Aeromonas hydrophila): 12.5 µg/mL
MIC against C. diversus (Citrobacter diversus; Citrobacter diversus): 25 µg/mL
MIC against M. catarrhalis (Moraxella catarrhalis; Moraxella catarrhalis): 50 µg/mL
MIC against P. mirabilis (Proteus mirabilis; Proteus mirabilis): 25 µg/mL
MIC against P. vulgaris (Proteus vulgaris; Proteus vulgaris): 12.5 µg/mL
MIC against S. marcescens (Serratia marcescens; Serratia marcescens): 25 µg/mL

PRT716 (TEYTCEDNVNPCGDDAYCNQIKTSVFCRCKPGFQRNMKNRQCE; listed as Homo sapiens)
MIC (E. coli DH5α): 25 µg/mL
MIC E. coli BL21 (E. coli BL21): 50 µg/mL
MIC P. aeruginosa (Pseudomonas aeruginosa): 25 µg/mL
MIC K. pneumonia (Klebsiella pneumonia): 12.5 µg/mL
MIC E. cloacae (Enterobacter cloacae): 25 µg/mL
MIC A. hydrophila (Aeromonas hydrophila): 50 µg/mL
MIC C. diversus (Citrobacter diversus): 25 µg/mL
MIC M. catarrhalis (Moraxella catarrhalis): 12.5 µg/mL
MIC P. mirabilis (Proteus mirabilis): 25 µg/mL
MIC P. vulgaris (Proteus vulgaris): 50 µg/mL
MIC S. marcescens (Serratia marcescens): 12.5 µg/mL

PRT244 (TCAMINCQYSCEDTEEGPQCLCPSSGLRLAPNGRDCL; listed as Homo sapiens)
MIC (E. coli DH5α): 50 µg/mL
MIC (μg/mL) E. coli BL21 (E. coli BL21; E. coli BL21): 12.5 µg/mL
MIC (μg/mL) P. aeruginosa (Pseudomonas aeruginosa): 12.5 µg/mL
MIC (μg/mL) K. pneumonia (Klebsiella pneumonia): 12.5 µg/mL
MIC (μg/mL) E. cloacae (Enterobacter cloacae): 12.5 µg/mL
MIC (μg/mL) A. hydrophila (Aeromonas hydrophila): 25 µg/mL
MIC (μg/mL) C. diversus (Citrobacter diversus): 12.5 µg/mL
MIC (μg/mL) M. catarrhalis (Moraxella catarrhalis): 25 µg/mL
MIC (μg/mL) P. mirabilis (Proteus mirabilis): 12.5 µg/mL
MIC (μg/mL) P. vulgaris (Proteus vulgaris): 25 µg/mL
MIC (μg/mL) S. marcescens (Serratia marcescens): 12.5 µg/mL

PRT562 (CQCHNNIDTTDPEACDKETGRCLKCLYHTEGEHCQFCRFGYYGDALQQDCRK; listed as Homo sapiens)
MIC (E. coli DH5α): 50 µg/mL
MIC against E. coli BL21 (E. coli BL21): 25 µg/mL
MIC against P. aeruginosa (Pseudomonas aeruginosa): 50 µg/mL
MIC against K. pneumonia (Klebsiella pneumonia): 25 µg/mL
MIC against E. cloacae (Enterobacter cloacae): 50 µg/mL
MIC against A. hydrophila (Aeromonas hydrophila): 25 µg/mL
MIC against C. diversus (Citrobacter diversus): 50 µg/mL
MIC against M. catarrhalis (Moraxella catarrhalis): 25 µg/mL
MIC against P. mirabilis (Proteus mirabilis): 12.5 µg/mL
MIC against P. vulgaris (Proteus vulgaris): 25 µg/mL
MIC against S. marcescens (Serratia marcescens): 50 µg/mL

PRT163 (EYNECLSAPCLNAATCRDLVNGYECVCLAEYKGTHCE; listed as Homo sapiens)
MIC (E. coli DH5α): 12.5 µg/mL
MIC (μg/mL) E. coli BL21 (E. coli BL21; E. coli BL21): 25 µg/mL
MIC (μg/mL) P. aeruginosa (Pseudomonas aeruginosa): 12.5 µg/mL
MIC (μg/mL) K. pneumonia (Klebsiella pneumonia): 25 µg/mL
MIC (μg/mL) E. cloacae (Enterobacter cloacae): 12.5 µg/mL
MIC (μg/mL) A. hydrophila (Aeromonas hydrophila): 25 µg/mL
MIC (μg/mL) C. diversus (Citrobacter diversus): 12.5 µg/mL
MIC (μg/mL) M. catarrhalis (Moraxella catarrhalis): 25 µg/mL
MIC (μg/mL) P. mirabilis (Proteus mirabilis): 50 µg/mL
MIC (μg/mL) P. vulgaris (Proteus vulgaris): 25 µg/mL
MIC (μg/mL) S. marcescens (Serratia marcescens): 12.5 µg/mL
